Laboratory results: US12595230B2, “Substituted 6,7-dihydro-5H-benzo[7]annulene compounds and their derivatives, processes for their preparation and therapeutic uses thereof” (Sanofi, priority 2020, dated 2026)

Target: T1, ERα (Homo sapiens, UniProt P03372)
T1 construct: host or cells: MCF7
T1 sequence (P03372 1-595): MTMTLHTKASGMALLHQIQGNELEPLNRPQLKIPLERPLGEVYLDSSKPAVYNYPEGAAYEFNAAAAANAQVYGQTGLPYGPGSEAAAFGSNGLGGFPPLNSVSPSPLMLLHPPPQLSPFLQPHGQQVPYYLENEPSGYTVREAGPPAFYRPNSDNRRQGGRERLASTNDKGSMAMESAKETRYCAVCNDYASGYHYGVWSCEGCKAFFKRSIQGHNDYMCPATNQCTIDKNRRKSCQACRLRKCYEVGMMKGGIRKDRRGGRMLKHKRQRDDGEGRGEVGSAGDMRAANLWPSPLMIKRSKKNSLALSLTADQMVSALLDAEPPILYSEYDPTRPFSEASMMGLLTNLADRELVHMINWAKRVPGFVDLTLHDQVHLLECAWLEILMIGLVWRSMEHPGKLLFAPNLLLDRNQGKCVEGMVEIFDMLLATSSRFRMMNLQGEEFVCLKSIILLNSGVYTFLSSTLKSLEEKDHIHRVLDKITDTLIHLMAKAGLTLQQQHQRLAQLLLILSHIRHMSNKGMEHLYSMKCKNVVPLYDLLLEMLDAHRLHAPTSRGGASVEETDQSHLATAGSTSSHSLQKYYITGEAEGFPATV
Assay: Estrogen receptor degradation activity: breast cancer cell ERα in cell western assay (MCF7 cells)
Assay type: cell-based
Settings: for % Degradation At 0.3 μM: 4 hours, relative to fulvestrant 0.1 μM positive control; for DC50: read-out: Degradation IC50
Outline: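 Compounds were applied to MCF7 cells in stripped-serum, phenol red-free medium for 4 h at final 0.3–0.0000018 μM, with fulvestrant (0.1 μM) as control. Value: IC50 (nM) for 50% ERα degradation.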

[1] = 4 hours post compound addition, concentration which degrades 50% of the estrogen receptor

Row | Structure (SMILES) | % Degradation At 0.3 μM [%] | DC50 [1] [nM] | IC50 [1] [nM]
1 | O=C(O)c1ccc2c(c1)CCCC(c1cccc(F)c1C(F)F)=C2c1ccc(CC2CN(CCCF)C2)cc1 [Example 296, 8-(2-(difluoromethyl)-3-fluorophenyl)-9-(4-((1-(3-fluoropropyl)azetidin-3-yl)methyl)phenyl)-6,7-dihydro-5H-benzo[7]annulene-3-carboxylic acid] | 91 | 0.7 | 
2 | O=C(O)c1ccc2c(c1)CCCC(c1cccc(CC(F)F)c1)=C2c1ccc(CC2CN(CCCF)C2)cc1 [Example 297, 8-(3-(2,2-difluoroethyl)phenyl)-9-(4-((1-(3-fluoropropyl)azetidin-3-yl)methyl)phenyl)-6,7-dihydro-5H-benzo[7]annulene-3-carboxylic acid] | 81 | 0.7 | 
3 | O=C(O)c1ccc2c(c1)CCCC(c1c(Cl)cccc1C(F)(F)F)=C2c1ccc(CC2CN(CCCF)C2)cc1 [Example 34, 8-(2-chloro-6-(trifluoromethyl)phenyl)-9-(4-((1-(3-fluoropropyl)azetidin-3-yl)methyl)phenyl)-6,7-dihydro-5H-benzo[7]annulene-3-carboxylic acid] | 79 | 0.2 | 
4 | N#Cc1c(C(=O)O)ccc2c1CCCC(c1ccc(Cl)cc1Cl)=C2c1ccc(CC2CN(CCCF)C2)cc1.O=CO [Example 246, 4-cyano-8-(2,4-dichlorophenyl)-9-(4-((1-(3-fluoropropyl)azetidin-3-yl)methyl)phenyl)-6,7-dihydro-5H-benzo[7]annulene-3-carboxylic acid, formic acid] | 73 | 31.6 | 
5 | O=C(O)c1ccc2c(c1)CCCC(c1cccc(Cl)c1C(F)(F)F)=C2c1ccc(CC2CN(CCC(F)(F)F)C2)cc1 [Example 259, 8-(3-chloro-2-(trifluoromethyl)phenyl)-9-(4-((1-(3,3,3-trifluoropropyl)azetidin-3-yl)methyl)phenyl)-6,7-dihydro-5H-benzo[7]annulene-3-carboxylic acid] | 87 | 0.4 | 
6 | Cc1cc(Cl)ccc1C1=C(c2ccc(CC3CN(CCCF)C3)cc2)c2ccc(C(=O)O)cc2CCC1 [Example 25, 8-(4-chloro-2-methylphenyl)-9-(4-((1-(3-fluoropropyl)azetidin-3-yl)methyl)phenyl)-6,7-dihydro-5H-benzo[7]annulene-3-carboxylic acid] | 91 | 0.3 | 
7 | O=C(O)c1ccc2c(c1)CCCC(c1cccc(Cl)c1C(F)(F)F)=C2c1ccc(CC2CN(CCCF)C2)cc1 [Example 226, 8-(3-chloro-2-(trifluoromethyl)phenyl)-9-(4-((1-(3-fluoropropyl)azetidin-3-yl)methyl)phenyl)-6,7-dihydro-5H-benzo[7]annulene-3-carboxylic acid] | 90 |  | 0.1
8 | Cc1c(C2=C(c3ccc(CC4CN(CCC(F)F)C4)cc3)c3ccc(C(=O)O)cc3CCC2)ccc(Cl)c1F [Example 292, 8-(4-chloro-3-fluoro-2-methylphenyl)-9-(4-((1-(3,3-difluoropropyl)azetidin-3-yl)methyl)phenyl)-6,7-dihydro-5H-benzo[7]annulene-3-carboxylic acid] | 93 | 0.4 | 
9 | CC(O)(c1ccc(C2=C(c3ccc(Cl)cc3Cl)CCCc3cc(C(=O)O)ccc32)cc1)C1CN(CCCF)C1.Cl (single isomer, unassigned; isomer 1) [Example 235, 8-(2,4-dichlorophenyl)-9-(4-(1-(1-(3-fluoropropyl)azetidin-3-yl)-1-hydroxyethyl)phenyl)-6,7-dihydro-5H-benzo[7]annulene-3-carboxylic acid, Hydrochloride Isomer 1] | 62 | 4.5 | 
10 | Cc1c(F)ccc(C2=C(c3ccc(CC4CN(CCCF)C4)cc3)c3ccc(C(=O)O)cc3CCC2C)c1C (racemic) [Example 309, 8-(4-fluoro-2,3-dimethylphenyl)-9-(4-((1-(3-fluoropropyl)azetidin-3-yl)methyl)phenyl)-7-methyl-6,7-dihydro-5H-benzo[7]annulene-3-carboxylic acid] | 88 | 0.4 | 
